# Measured values: US9586961B2, “Homopiperazine derivatives as protein tyrosine kinase inhibitors and pharmaceutical use thereof” (LEO PHARMA A/S, priority 2010, dated 2017)
# Legend:
# Format in all cases: biochemical
# TYK2 = biological target: T1, TYK2 (Homo sapiens, UniProt P29597); assay: TYK2 kinase assay (HTRF, inhibition of phosphorylation of a synthetic peptide); settings: catalytic domain aa 871-1187, GST-tag; 13 μM ATP (Km); read-out: TYK2 kinase inhibitory activity (EC50)
# T1 construct: JAK1 (aa 850-1154) and TYK2 (aa 871-1187) are expressed with an N-terminally fused GST-tag; GST (N); purchased Carna Biosciences, Inc; host or cells: baculovirus expression system
# T1 sequence (P29597 871-1187): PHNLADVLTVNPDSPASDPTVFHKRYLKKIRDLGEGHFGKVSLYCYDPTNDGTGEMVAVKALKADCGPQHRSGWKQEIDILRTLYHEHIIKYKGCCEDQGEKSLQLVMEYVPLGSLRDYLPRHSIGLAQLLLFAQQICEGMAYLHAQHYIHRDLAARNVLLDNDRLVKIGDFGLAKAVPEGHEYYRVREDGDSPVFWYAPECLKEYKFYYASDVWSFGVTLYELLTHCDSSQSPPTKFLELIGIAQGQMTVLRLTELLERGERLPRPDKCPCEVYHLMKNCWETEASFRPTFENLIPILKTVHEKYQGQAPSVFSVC
# How it was run: (§1)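 Baculovirus-expressed human catalytic domains (GST-JAK1, GST-TYK2, His-JAK2, His-JAK3) phosphorylated 1 μM TK substrate-biotin at ATP Km (JAK1 7 μM, JAK2 4 μM, JAK3 2 μM, TYK2 13 μM) in pH 7.0 Hepes for 20-30 min at RT, 0.75% DMSO. EDTA stop, then overnight streptavidin-XL665/cryptate-antibody detection and HTRF read.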
# JAK2 = biological target: T2, JAK2 (Homo sapiens, UniProt O60674); assay: JAK2 kinase assay (HTRF, inhibition of phosphorylation of a synthetic peptide); settings: catalytic domain, His-tag; 4 μM ATP (Km); read-out: JAK2 kinase inhibitory activity (EC50)
# T2 construct: All four purified enzymes contain only the catalytic domain; His (N); purchased Carna Biosciences, Inc; host or cells: baculovirus expression system
# T2 sequence (O60674 849-1124 limits assumed): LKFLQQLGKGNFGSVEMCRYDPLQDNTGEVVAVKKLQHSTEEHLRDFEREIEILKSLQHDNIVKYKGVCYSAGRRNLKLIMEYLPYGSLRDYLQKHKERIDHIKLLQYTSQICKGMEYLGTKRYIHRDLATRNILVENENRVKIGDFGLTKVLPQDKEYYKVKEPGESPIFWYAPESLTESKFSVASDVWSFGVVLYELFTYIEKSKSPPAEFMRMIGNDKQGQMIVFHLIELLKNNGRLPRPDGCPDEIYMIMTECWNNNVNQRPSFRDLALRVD
# How it was run: as §1
# JAK3 = biological target: T3, JAK3 (Homo sapiens, UniProt P52333); assay: JAK3 kinase assay (HTRF, inhibition of phosphorylation of a synthetic peptide); settings: catalytic domain, His-tag; 2 μM ATP (Km); read-out: JAK3 kinase inhibitory activity (EC50)
# T3 construct: All four purified enzymes contain only the catalytic domain; His (N); purchased Carna Biosciences, Inc; host or cells: baculovirus expression system
# T3 sequence (P52333 822-1111 limits assumed): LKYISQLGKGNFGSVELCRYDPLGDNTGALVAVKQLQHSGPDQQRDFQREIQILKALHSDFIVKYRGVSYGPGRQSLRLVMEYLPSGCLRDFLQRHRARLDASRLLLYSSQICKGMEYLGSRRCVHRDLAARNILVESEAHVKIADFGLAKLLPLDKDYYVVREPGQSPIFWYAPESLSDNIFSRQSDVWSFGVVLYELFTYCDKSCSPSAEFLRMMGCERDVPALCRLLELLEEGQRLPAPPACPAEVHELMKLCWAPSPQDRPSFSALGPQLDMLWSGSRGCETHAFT
# How it was run: as §1
# JAK1 = biological target: T4, JAK1 (Homo sapiens, UniProt P23458); assay: JAK1 kinase assay (HTRF, inhibition of phosphorylation of a synthetic peptide); settings: catalytic domain aa 850-1154, GST-tag; 7 μM ATP (Km); read-out: JAK1 kinase inhibitory activity (EC50)
# T4 construct: JAK1 (aa 850-1154) and TYK2 (aa 871-1187) are expressed with an N-terminally fused GST-tag; GST (N); purchased Carna Biosciences, Inc; host or cells: baculovirus expression system
# T4 sequence (P23458 850-1154): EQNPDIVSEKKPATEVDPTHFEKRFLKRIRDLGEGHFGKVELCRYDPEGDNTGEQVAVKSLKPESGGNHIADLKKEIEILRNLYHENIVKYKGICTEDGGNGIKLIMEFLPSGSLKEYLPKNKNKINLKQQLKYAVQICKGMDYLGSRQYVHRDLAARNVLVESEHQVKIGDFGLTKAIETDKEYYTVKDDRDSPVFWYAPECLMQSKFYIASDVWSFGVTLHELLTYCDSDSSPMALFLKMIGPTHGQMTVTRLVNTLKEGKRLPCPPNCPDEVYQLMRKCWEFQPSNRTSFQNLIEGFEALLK
# How it was run: as §1
Structure (SMILES),EC50 (TYK2) [nM],EC50 (JAK2) [nM],EC50 (JAK3) [nM],EC50 (JAK1) [nM]
"CCCCC(=O)Nc1nc(N2CCN(Cc3ccccc3)CC3(CC3)C2)c2cc[nH]c2n1 [Example 282, N-[4-(5-benzyl-5,8-diazaspiro[2.6]nonan-8-yl)-7H-pyrrolo[2,3-d]pyrimidin-2-yl]pentanamide]",> 1000,> 1000,> 1000,> 1000
"CCCCC(=O)Nc1nc(N2CCCN(Cc3ccccc3)C3(CC3)C2)c2cc[nH]c2n1 [Example 283, N-[4-(9-benzyl-5,9-diazaspiro[2.6]nonan-5-yl)-7H-pyrrolo[2,3-d]pyrimidin-2-yl]pentanamide]",> 1000,> 1000,> 1000,> 1000
"CC1CN(c2ncnc3[nH]ccc23)CC2(CC2)CN1C(=O)c1ccccc1 (stereo not shown) [Example 284, [7-methyl-5-(7H-pyrrolo[2,3-d]pyrimidin-4-yl)-5,8-diazaspiro[2.6]nonan-8-yl]-phenyl-methanone]",> 1000,> 1000,> 1000,> 1000
"CC1CN(c2ncnc3[nH]ccc23)CC2(CC2)CN1C(=O)CC1CCCC1 (stereo not shown) [Example 285, 2-cyclopentyl-1-[7-methyl-5-(7H-pyrrolo[2,3-d]pyrimidin-4-yl)-5,8-diazaspiro[2.6]nonan-8-yl]ethanone]",> 1000,100 to 1000,> 1000,100 to 1000
"CC1CN(c2ncnc3[nH]ccc23)CC2(CC2)CN1C(=O)Cc1ccc(C#N)cc1 (stereo not shown) [Example 286, 4-[2-[7-methyl-5-(7H-pyrrolo[2,3-d]pyrimidin-4-yl)-5,8-diazaspiro[2.6]nonan-8-yl]-2-oxo-ethyl]benzonitrile]",> 1000,> 1000,> 1000,> 1000
c1nc(N2CCNCC3(CC3)C2)c2cc[nH]c2n1 [Example 290],> 1000,> 1000,> 1000,> 1000
c1nc(N2CCNC3(CC2)CC3)c2cc[nH]c2n1 [Example 291],> 1000,> 1000,> 1000,> 1000
CC1CN(c2ncnc3[nH]ccc23)CC2(CC2)CN1 (stereo not shown) [Example 293],> 1000,> 1000,> 1000,> 1000
CCCCC(=O)Nc1nc(N2CCNCC3(CC3)C2)c2cc[nH]c2n1 [Example 294],> 1000,> 1000,> 1000,> 1000
CCCCC(=O)Nc1nc(N2CCCNC3(CC3)C2)c2cc[nH]c2n1 [Example 295],> 1000,> 1000,> 1000,> 1000

# More lines, now with the values ahead:
EC50 (TYK2) [nM],EC50 (JAK2) [nM],EC50 (JAK3) [nM],EC50 (JAK1) [nM],Structure (SMILES)
100 to 1000,< 100,100 to 1000,< 100,"O=C(Cc1ccc(C(F)(F)F)cc1)N1CCN(c2ncnc3[nH]ccc23)CC2(CC2)C1 [Example 271, 1-[5-(7H-pyrrolo[2,3-d]pyrimidin-4-yl)-5,8-diazaspiro[2.6]nonan-8-yl]-2-[4-(trifluoromethyl)phenyl]ethanone]"
> 1000,< 100,100 to 1000,< 100,"O=C(Cc1ccc(OC(F)(F)F)cc1)N1CCN(c2ncnc3[nH]ccc23)CC2(CC2)C1 [Example 274, 1-[5-(7H-pyrrolo[2,3-d]pyrimidin-4-yl)-5,8-diazaspiro[2.6]nonan-8-yl]-2-[4-(trifluoromethoxy)phenyl]ethanone]"
100 to 1000,< 100,100 to 1000,< 100,"Cc1c[nH]c(C(=O)N2CCCN(c3ncnc4[nH]ccc34)CC23CC3)c1 [Example 277, (4-methyl-1H-pyrrol-2-yl)-[5-(7H-pyrrolo[2,3-d]pyrimidin-4-yl)-5,9-diazaspiro[2.6]nonan-9-yl]methanone]"
100 to 1000,< 100,100 to 1000,< 100,"Cc1[nH]c(C(=O)N2CCCN(c3ncnc4[nH]ccc34)CC23CC3)cc1C#N [Example 278, 2-methyl-5-[5-(7H-pyrrolo[2,3-d]pyrimidin-4-yl)-5,9-diazaspiro[2.6]nonane-9-carbonyl]-1H-pyrrole-3-carbonitrile]"
> 1000,> 1000,> 1000,> 1000,"CCCCN1CCN(c2ncnc3[nH]ccc23)CC2(CC2)C1 [Example 279, 4-(5-butyl-5,8-diazaspiro[2.6]nonan-8-yl)-7H-pyrrolo[2,3-d]pyrimidine]"
> 1000,100 to 1000,100 to 1000,100 to 1000,"CCCCN1CCCN(c2ncnc3[nH]ccc23)CC12CC2 [Example 281, 4-(9-butyl-5,9-diazaspiro[2.6]nonan-5-yl)-7H-pyrrolo[2,3-d]pyrimidine]"
